Experimental data as given in patent publication US6191155A (priority 1997, dated 2001).

Tested on: Plutella xylostella
Assay: Plutella test (caterpillars of the diamond-back moth on cabbage leaves)
Assay type: in vivo, Plutella xylostella (on Brassica oleracea)
Details: 168 h, active compound concentration 0.1 % by weight, after 7 days, read-out: Kill in % after 7d
Protocol: Solvent: 7 parts by weight of dimethylformamide
Emulsifier: 1 part by weight of alkylaryl polyglycol ether
(§1) To produce a suitable preparation of active compound, 1 part by weight of active compound is mixed with the stated amounts of solvent and emulsifier, and the concentrate is diluted with water to the desired concentration.
Cabbage leaves (Brassica oleracea) are treated by being dipped into the preparation of active compound of the desired concentration and are populated with caterpillars of the diamond-back moth (Plutella xylostella) while the leaves are still moist.
After 7 days, the kill is determined. An efficacy of 100% means that all caterpillars have been killed, while an efficacy of 0% means that none of the caterpillars have been killed.

Structure (SMILES) | mortality at 0.1 % strength [%]
O=C(OCc1cccnc1)c1snc(Cl)c1Cl [Example 12] | 100
O=C(OCCOCCN1CCCC1)c1snc(Cl)c1Cl [Example 3] | 100

Tested on: Erysiphe graminis f.sp. hordei
Assay: Erysiphe test (barley)/protective
Assay type: in vivo, Erysiphe graminis f.sp. hordei (on barley)
Details: active compound concentration 250 (head: % by weight); protective; 7 days after inoculation; 100% = no infection
Protocol: Erysiphe Test (Barley)/Protective
(§2) Solvent: 10 parts by weight of N-methyl-pyrrolidone
(§3) Emulsifier: 0.6 parts by weight of alkylaryl polyglycol ether
as §1
To test for protective activity, young plants are sprayed with the preparation of active compound at the stated application rate.
After the spray coating has dried on, the plants are dusted with spores of Erysiphe graminis f.sp. hordei.
The plants are placed in a greenhouse at a temperature of approximately 20° C. and a relative atmospheric humidity of approximately 80% to promote the development of mildew pustules.
Evaluation is carried out 7 days after the inoculation. 0% means an efficacy which corresponds to that of the control, while an efficacy of 100% means that no infection is observed.

Structure (SMILES) | Efficacy in % [%]
O=C(OCCOCCN1CCCC1)c1snc(Cl)c1Cl [Example 3] | 100

Tested on: Leptosphaeria nodorum
Assay: Leptosphaeria nodorum test (wheat)/protective
Assay type: in vivo, Leptosphaeria nodorum (on wheat)
Details: application rate 250 g/ha; protective; evaluation 10 days after inoculation
Protocol: Leptosphaeria nodorum Test (Wheat)/Protective
as §2, §3, §1
To test for protective activity, young plants are sprayed with the preparation of active compound at the stated application rate. After the spray coating has dried on, the plants are sprayed with a spore suspension of Leptosphaeria nodorum. The plants remain in an incubation cabin at 20° C. and 100% relative atmospheric humidity for 48 hours.
The plants are placed in a greenhouse at a temperature or approximately 15° C. and a relative atmospheric humidity of 80%.
Evaluation is carried out 10 days after the inoculation. 0% means an efficacy which corresponds to that of the control, while an efficacy of 100% means that no infection is observed.

Structure (SMILES) | Efficacy in % [%]
O=C(OCCc1ccc(Cl)cc1)c1snc(Cl)c1Cl [Example 13] | 81

Tested on: not listed separately
Assay: log P by HPLC (EEC Directive 79/831 Annex V.A8)
Assay type: physicochemical
Details: gradient method, acetonitrile/0.1% of aqueous phosphoric acid
Protocol: *) The log P values were determined in accordance with EEC Directive 79/831
Annex V.A8 by HPLC (gradient method, acetonitrile/0.1% of aqueous

Structure (SMILES) | chromatographic logP
CCCSC(=O)c1snc(Cl)c1Cl [Example 18] | 4.66
CSC(=O)c1snc(Cl)c1Cl [Example 15] | 3.46
O=C(OCCOC(CF)CF)c1snc(Cl)c1Cl [Example 9] | 3.11
O=C(OCC(O)CO)c1snc(Cl)c1Cl (centres unmarked) [Example 20] | 1.49
O=C(OCCn1nnc2ccccc21)c1snc(Cl)c1Cl [Example 11] | 2.81
Cc1ccc(C(C)OC(=O)c2snc(Cl)c2Cl)cc1 (centres unmarked) [Example 19] | 5.02
O=C(OCCOCc1ccccc1)c1snc(Cl)c1Cl [Example 5] | 4.12
O=C(OCCOCCN1CCCC1)c1snc(Cl)c1Cl [Example 3] | 1.36
CC(C)CSC(=O)c1snc(Cl)c1Cl [Example 17] | 5.16
CCN(CCOCCOC(=O)c1snc(Cl)c1Cl)c1ccccc1 [Example 7] | 2.6
O=C(OCCOc1cccc(C(F)(F)F)c1)c1snc(Cl)c1Cl [Example 4] | 4.71
O=C(OCCOCC(F)(F)F)c1snc(Cl)c1Cl [Example 8] | 3.55
O=C(OCCOc1ccc(Cl)cc1)c1snc(Cl)c1Cl [Example 10] | 4.58
COC(=O)c1ccc(OCCOC(=O)c2snc(Cl)c2Cl)cc1 [Example 6] | 3.91
CCN(CC)CCOC(=O)c1snc(Cl)c1Cl [Example 2] | 1.37

Tested on: fungi
Assay: not given
Details: cited from earlier work

Structure (SMILES) | activity in controlling fungi
CC(C)OC(=O)c1snc(Cl)c1Cl [isopropyl 3,4-dichloro-isothiazol-5-carboxylate] | good
